Legend:
[1] = Chiral stability on storage as a solid at 40 °C and 75 % RH (chiral HPLC); format: physicochemical
Protocol: Example 8: Chiral stability: Representative samples of the crystalline sodium salt of (R)-3-[6-amino-pyridin-3-yl]-2-(1-cyclohexyl-1 H-imidazol-4-yl)-propionic acid sodium salt dihydrate as prepared in Example 3 were stored as a solid under the conditions (A) and (B): (A) 40 °C and 75 % RH 2 weeks; (B) 40 °C and 75 % RH 4 weeks: Results are shown in the following table:
Under the storage conditions the samples remain stable. […] The purity was determined by chiral HPLC on a HPLC system containing a Quaternary HPLC pump (e.g. HP 1100), an auto sampler, an UV absorbance detector (e.g. DAD Agilent Technologies or other adequate HPLC-System) and a computer data acquisition system with suitable software (e.g. Dionex-Chromeleon). A Zorbax SB_CN (4.6 x 100 mm, 3.5 µlτ ? ), column was used as stationary phase and two mobile phases A (975 mL water, 25 mL methanol, 1 mL perchloric acid) and B (975 mL methanol, 25 mL water) were used as mobile phases. The flow rate was set to a value of 1.0 mL/minute and the oven temperature was set to 15°C. Detection was performed by absorbance of the compounds at 236 nm (UV) (bandwidth: 4 nm) and reference wavelength was set to 450 nm (bandwidth: 50 nm). Typical total run times were in the range of about 10 minutes. For sample preparation 20 mg of the substance were accurately weighed into a 10 ml volumetric flask and dissolved and diluted to volume with solvent (acetonitrile/water 90:10 VN). Afterwards 1 ml of this solution was transferred to a 10 mL volumetric flask and then diluted to volume with water. For the HPLC analysis 5 µl of the sample were injected into the system. Gradient used: 0 min (time elapsed) 0% mobile phase B, 1 min 0% mobile phase B, 4 min 53% mobile phase B, 6 min 95% mobile phase B, 7 min 95% mobile phase B, 7.5 min 0% mobile phase B and after 10 min 0% mobile phase B. Enanatiomeric excess was determined by chiral HPLC on a HPLC system containing a Quaternary HPLC pump (e.g. HP 1100), an auto sampler, an UV absorbance detector (e.g. DAD Agilent Technologies or other adequate HPLC-System) and a computer data acquisition system with suitable software (e.g. Dionex-Chromeleon). A Chirobiotic R, Supelco (Astec) (4.6 x 250mm; 5µηη) column was used as stationary phase and a solution of 800 mL water, 1200 mL acetonitrile and 1.0 g ammoniumacetate was used as mobile phase. The flow rate was set to a value of 1.5 mL/minute and the oven temperature was set to 45°C. Detection was performed by absorbance of the compounds at 236 nm (UV) (bandwidth: 8 nm) and reference wavelength was set to 450 nm (bandwidth: 50 nm). Typical total run times were in the range of about 15 minutes. For sample preparation 50 mg of the substance were accurately weighed into a 10 mL volumetric flask and dissolved and diluted to volume with solvent (acetonitrile/water 50:50). For the HPLC analysis 5 µí of the sample were injected into the system. Gradient used: Isograt (15 minutes 100% mobile phase A).
Example 10: Chiral stability; Comparison Experiment: (R)-3-[6-amino-pyridin-3-yl]-2-(1-cyclohexyl-1 H-imidazol-4-yl)-propionic acid as prepared in Example 1 was used for the measurement. Representative samples of the compound (R)-3-[6-amino-pyridin-3-yl]-2-(1-cyclohexyl-1 H-imidazol-4-yl)-propionic acid as prepared in Example 1 were stored as a solid under the conditions (A) and (B) as defined in Example 8.

[2] = Dynamic vapor sorption (DVS), SPS11-10µ, one cycle at 25 °C; format: physicochemical; conditions: DVS isotherm at 25 °C
Protocol: (§1) Example 7: Dynamic vapor sorption (DVS) of (R)-3-[6-amino-pyridin-3-yl]-2-(1-cyclohexyl-1 H-imidazol-4-yl)-propionic acid sodium salt monohydrate: Moisture sorption/desorption isotherms were recorded on a SPS11-10µ from Projekt Messtechnik (Ulm, Germany). One cycle was run at 25 °C, in which the sample was first stepwise decreased to 0% RH and then the relative humidity was stepwise increased from 0 to 95% and the weight of the sample was measured. Typical total measurement times for both cycles were about 20 to 30 hours. The measured data for the (R)-3-[6-amino-pyridin-3-yl]-2-(1-cyclohexyl-1 H-imidazol-4-yl)-propionic acid sodium salt monohydrate as prepared in Examples 2 or 3 are shown in the following table: DVS Isotherm at 25 °C:
(§2) Example 12: DVS, Comparison Experiment: (R)-3-[6-amino-pyridin-3-yl]-2-(1-cyclohexyl-1 H-imidazol-4-yl)-propionic acid as prepared in Example 1 was used for the measurement. The measurement was performed as disclosed in Example 7 with (R)-3-[6-amino-pyridin-3-yl]-2-(1-cyclohexyl-1 H-imidazol-4-yl)-propionic acid (free acid, amorphous) and the received data are shown in the following table: DVS Isotherm at 25 °C
as §1, with “(DVS):” for “(DVS) of (R)-3-[6-amino-pyridin-3-yl]-2-(1-cyclohexyl-1 H-imidazol-4-yl)-propionic acid sodium salt monohydrate:”, “Room humidity (RH)” for “RH”, “dihydrate” for “monohydrate”, “Example” for “Examples 2 or”, “isotherm” for “Isotherm”, “25°C:” for “25 °C:”
as §2, with “9:” for “12:”

[3] = format: physicochemical; conditions: At 90% RH, 25°C
Protocol: Said crystal Form I according to the invention (samples obtained according to the process of scheme 1) was characterized by several physical methods such as X-ray Powder Diffraction, Differential Scanning Calorimetry, Thenno-Gravimetric Analysis, Water-Activity isotherm measurement, as shown below. X-Ray Powder Diffraction (XRPD): XRPD experiments are carried out on a Braker AXS D8 powder diffractometer using the Bragg-Brentano parafocusing geometry. A thin layer of the product is deposited on a single-crystal silicon wafer, cut out according to Si (510) crystallographic orientation that, by systematic extinction, impedes any Bragg reflection. […] Diagrams are recorded in the following conditions: a 1.5 to 40.0° scan in angle 20, 10 and 100 seconds counting time per degree in 20, according to the amount of powder to be analyzed, and ambient conditions of pressure, temperature and relative humidity. […] Between 1.5 and 5 mg of the product to be analyzed is placed in a semi-open aluminum sample pan. An endo thermic peak is recorded (onset around 104°C). […] A controlled relative humidity is generated by mixing different proportions of dry and water saturated carrier gas streams (monitored by mass flow conti llers). […] From the complete moisture sorption and desorption profile an isotherm is calculated using the DVS Advanced Analysis Suite v3.6. […]

total water uptake [3] | Compound | Enantiomeric excess ([1]; Storage condition (A) 40 °C and 75 % RH 2 weeks, stored as a solid) | Enantiomeric excess ([1]; at the beginning) | Change In Mass (%) Desorption ([2]; Target RH 0.4 %) | Change In Mass (%) Sorption ([2]; Target RH 10.0 %) | Change In Mass (%) Desorption ([2]; Target RH 10.1 %) | Change In Mass (%) Desorption ([2]; Target RH 20.0 %) | Change In Mass (%) Sorption ([2]; Target RH 20.0 %) | Change In Mass (%) Sorption ([2]; Target RH 30.0 %) | Change In Mass (%) Desorption ([2]; Target RH 30.1 %) | Change In Mass (%) Sorption ([2]; Target RH 40.1 %) | Change In Mass (%) Sorption ([2]; Target RH 50.0 %) | Change In Mass (%) Sorption ([2]; Target RH 60.1 %) | Change In Mass (%) Sorption ([2]; Target RH 70.0 %) | Change In Mass (%) Sorption ([2]; Target RH 75.0 %) | Change In Mass (%) Sorption ([2]; Target RH 80.1 %) | Change In Mass (%) Sorption ([2]; Target RH 85.1 %) | Change In Mass (%) Sorption ([2]; Target RH 89.9 %) | Change In Mass (%) Sorption ([2]; Target RH 95.0 %)
 | Nc1ccc(C[C@@H](C(=O)O)c2cn(C3CCCCC3)cn2)cn1 [(R)-3-[6-amino-pyridin-3-yl]-2-(1-cyclohexyl-1 H-imidazol-4-yl)-propionic acid] | 94.9% | 98.2% | -1.6% | -0.5% | 0.3% | 1.1% | 0.5% | 1.9% | 1.7% | 3.9% | 6.6% | 9.6% | 13.4% | 15.0% | 16.9% | 20.1% | 25.1% | 32.3%
less than 0.15 % (w/w) | COc1ccc(/C=C\c2cc(OC)c(OC)c(OC)c2)cc1NC(=O)[C@@H](N)CO [crystal Form I, (2S)-2-amino-3-hydroxy-N-[2-methoxy-2-[(1Z)-2-(3,4,5-trimethoxyphenyl)ethenyl]phenyl] propanamide] |  |  |  |  |  |  |  |  |  |  |  |  |  |  |  |  |  | 

Reference: patent publication EP2805705B1, “Packaging with one or more administration units comprising a sodium salt of (R)-3-[6-amino-pyridin-3-yl]-2-(1-cyclohexyl-1 H-imidazol-4-yl)-propionic acid” (IP Gesellschaft für Management mbH, priority 2013, dated 2014)
